Assay results as given in US20100197601A1, “USE OF A FIBRINOGEN RECEPTOR ANTAGONIST AND/OR FOLLICULAR GONADOTROPIN RELEASING PEPTIDE AS A THERAPEUTIC AGENT IN THE TREATMENT OF STREPTOCOCCUS PNEUMONIA INFECTION” (priority 2007, published 2010).
Primed or numbered codes have the meaning given here. Where no end group is shown, it is not given here. [ ]: non-standard residue; d: D form. Pen′ = not defined here

Key:
[1] = test system: HIV-1IIIB; test: HIV-1 antiviral assay in CEM-SS cells
[2] = test system: HCMV strain AD169; test: HCMV plaque formation assay in MRC-5 cells; type: cell-based; conditions: for inhibition of HCMV plaque formation as compared to the virus control experiment: 10 micrograms per ml, 7-10 days
[3] = test system: hepatitis B virus (HBV) ayw strain; test: HBV experimental assay system, HepG2-2.2.15; type: cell-based; conditions: 10 micrograms per ml, six days, HBV DNA by TaqMan PCR, combination 0.95 mole peptide 1 and 1.05 mole peptide 2
[4] = test system: Streptococcus pneumoniae; test: Streptococcus pneumoniae assay; type: cell-based; conditions: 10 micrograms per ml; 5x10^5 CFU/mL; read visually; combination for instance 0.95 mole peptide 1 and 1.05 mole peptide 2
[5] = test system: murine spleen cells restimulated with Ovalbumin; test: Th1/Th2 cytokine profiling assay; type: cell-based, Balb/c mice; conditions: 10 micrograms per ml
[6] = test system: Primary Human endothelial cells (HUVEC); test: Endothelial cell migration assay; type: cell-based; conditions: 10 micrograms per ml, 22 hours, combination peptide 1:peptide 2 1.10 mole:0.90 mole
[7] = test system: HUVEC; test: Endothelial tube formation assay; type: cell-based, human; conditions: 10 micrograms per ml, 20 hours
Procedure: The endothelial tube formation assay is based on the ability of endothelial cells to form three-dimensional capillary-like tubular structures when cultured on a gel of basement membrane extract. The endothelial tube formation assay represents a powerful model for studying inhibition and induction of angiogenesis. Pre-labeled HUVEC with Calcein AM were seeded in a 96-well culture plate coated with extracellular metrix (Chemicon international Cat. ECM625) and treated with test peptides—10 micrograms per ml—in full growth medium. Positive control wes vehicle only. The endothelial cells were allowed to form tubes foe 20 hours and were then examined under an inverted fluorescent microscope. Duplicate wells for each treatment were photographed and quantitatively analyzed for an average tubule length using image analysis software ImageProPlus. Raw data were expressed as average tubule lengths in pixels±standard deviation. Statistic p values were computed using the Student's t-test.

[8] = combination 0.95 mole peptide 1 and 1.05 mole peptide 2

| Compound | antiviral activity of positive control compounds (HIV-1) [1] | inhibition of HCMV plaque formation as compared to the virus control experiment [2] | inhibition of the growth of Streptococcus pneumoniae [4] [%] | production of TNF-alpha, induced by ([5]; 72 hours) [%] | change of the production of IL-2 [5, 8] | inhibition of the migration of human endothelial cells [6] [%] | further results |
| --- | --- | --- | --- | --- | --- | --- | --- |
| Cc1cn([C@H]2C[C@H](N=[N+]=[N-])[C@@H](CO)O2)c(=O)[nH]c1=O [AZT] | expected levels of antiviral activity | – | – | – | – | – | – |
| Nc1nc(O)c2ncn(COC(CO)CO)c2n1 [Ganciclovir, reference compound] | – | – | – | – | – | – | antiviral activity of positive control compound (HCMV) ([2]; positive control): expected levels of antiviral activity |
| CC(C)(C)NC(=O)[C@@H]1CN(Cc2cccnc2)CCN1C[C@@H](O)C[C@@H](Cc1ccccc1)C(=O)N[C@H]1c2ccccc2C[C@H]1O [indinavir] | expected levels of antiviral activity | – | – | – | – | – | – |
| Ac-Pen-Arg-Gly-Asp-Cys-OH (Ac-[Pen′]RGDC-OH; reading uncertain; also: printed as Ac-Pen-Arg-Gly-Asp-Cys-OH) [Peptide 1] | – | did not inhibit | 100 | 30.0 | did not significantly change | 4 | inhibition of HBV replication as compared to the virus control infection [3]: no effect; production of IL-4, decreased by ([5]; 72 hours): 44%; production of IL-5, decreased by ([5]; 72 hours): 26.5%; change of the production of IFN-y [5, 8]: did not significantly change; inhibition of the tube formation of human endothelial cells ([7]; combination peptide 1:peptide 2 1.10 mole:0.90 mole): 26% |
| Thr-Asp-Thr-Ser-His-His-Asp-Gln-Asp-His-Pro-Thr-Phe-Asn-OH (TDTSHHDQDHPTFN-OH) [Peptide 2] | – | did not inhibit | 100 | 34 | did not significantly change | 8 | production of IFN-y, induced by ([5]; 72 hours): 23.4%; production of IL-4, induced by ([5]; 72 hours): 29%; change of the production of IL-5 [5, 8]: did not significantly change; increase of the tube formation of endothelial cells [7]: 11% |
